Results taken from patent publication US12544375B2, “Small molecule therapeutic for parkinson's disease paired with a biomarker of therapeutic activity” (The Board of Trustees of the Leland Stanford Junior …, priority 2019, dated 2026).

Tested on: LRRK2^G2019S, PINK1 null and SNCA^A53T flies
Assay: Fly lifespan (survival curves)
Assay type: in vivo
Protocol: FIG. 4A-FIG. 4I. Miro1 Reducer Rescues PD-Relevant Phenotypes in Flies. For all panels, when Miro1 Reducer was not added, the same volume of the solvent, DMSO, was supplied in fly food. Drug administration (2.5 μM) was started from day 2. (FIG. 4A-FIG. 4C) Survival curves of LRRK2^G2019S (FIG. 4A), PINK1^B9 (imprecise excision, null) and PINK1^RV (the precise excision control for PINK1^B9) (FIG. 4B), and SNCA^A53T flies (FIG. 4C). n=58-150. (FIG. 4D) Dopaminergic (DA) neurons in the PPM1/2 clusters of 22-day old flies were immunostained with anti-TH. (FIG. 4D-FIG. 4F) Quantification of the DA neuron number in the PPL1 or PPM1/2 cluster (total number divided by 2 for each brain). (FIG. 4D) LRRK2^G2019S. n=6-8 brains. (FIG. 4E) PINK1^B9 (“−”) and PINK1^RV (“+”). n=9-16. (FIG. 4F) SNCA^A53T. n=9-11. (FIG. 4G-FIG. 4I) Climbing ability (Average PI±S.E.M) of adult flies. n=24-47 flies.
In order to cross-validate the neuroprotective effect of Miro1 Reducer in vivo, we fed the compound to three well-established fly PD models: (1) Actin-GAL4>UAS-LRRK2^G2019S (ubiquitous expression of human pathogenic LRRK2); (2) PINK1 null; and (3) Elav-GAL4>UAS-SNCA^A53T (neuronal expression of human pathogenic alpha-synuclein). […]
Fly Behavior and Biochemical Assays. […] Flies were transferred into fresh vials and the numbers of dead and escaped flies were scored 3 times a week. […]

For `O=C(Nc1ccc(Nc2cc(-n3ccnc3)ncn2)cc1)Nc1cccc(F)c1` [Miro1 Reducer], the “long-term toxicity (lifespan)” value (2.5 μM in food from adulthood, wild-type or PD flies) was “no long-term toxicity” and the “lifespan of SNCA^A53T flies” value (2.5 μM in food, Log-Rank P=0.00019 0 μM v.s. 2.5 μM) was “extended the shortened lifespan”.
